The results in this text go back to patent US20200236940A1, “2-(HET)ARYL-SUBSTITUTED FUSED HETEROCYCLE DERIVATIVES AS PESTICIDES” (Bayer Aktiengesellschaft, priority 2017, published 2020).

What all share (assay type): in vivo
Assay [1] concerns Myzus persicae. The experiment in a line: Myzus persicae oral test. The settings on record: 120 h, application rate 4 ppm, after 5 days, read-out: efficacy. How it is done: Myzus persicae—Oral Test Solvent: 100 parts by weight of acetone To produce a suitable active ingredient formulation, 1 part by weight of active ingredient is dissolved with the stated parts by weight of solvent and made up to the desired concentration with water. 50 μl of the active ingredient formulation are transferred into microtitre plates and made up to a final volume of 200 μl with 150 μl of IPL41 insect medium (33%+15% sugar). Subsequently, the plates are sealed with parafilm, which a mixed population of green peach aphids (Myzus persicae) within a second microtitre plate is able to puncture and imbibe the solution. After 5 days, the efficacy in % is determined. 100% means that all the aphids have been killed; 0% means that no aphids have been killed.

For assay [2], the system named is Myzus persicae. The experiment in a line: Myzus persicae spray test (MYZUPE), Chinese cabbage leaf discs. To be noted: foliar, 120 h; for pest or weed control at 20 g/ha: application rate 20 g/ha; for pest or weed control at 20 g/ha / pest or weed control at 100 g/ha: after 5 days, read-out: efficacy; for pest or weed control at 100 g/ha: application rate 100 g/ha. How it is done:
Myzus persicae—Spray Test [table] To produce a suitable active ingredient formulation, 1 part by weight of active ingredient is dissolved with the specified parts by weight of solvent and made up to the desired concentration with water containing an emulsifier concentration of 1000 ppm. To produce further test concentrations, the formulation is diluted with emulsifier-containing water. Discs of Chinese cabbage leaves (Brassica pekinensis) infested by all stages of the green peach aphid (Myzus persicae) are sprayed with an active ingredient formulation of the desired concentration. After 5 days, the efficacy in % is determined. 100% means that all the aphids have been killed; 0% means that no aphids have been killed. Myzus persicae—Spray Test (MYZUPE) [table] To produce a suitable active ingredient formulation, 1 part by weight of active ingredient is dissolved with the specified parts by weight of solvent and made up to the desired concentration with water containing an emulsifier concentration of 1000 ppm. To produce further test concentrations, the formulation is diluted with emulsifier-containing water. Discs of Chinese cabbage leaves (Brassica pekinensis) infested by all stages of the green peach aphid (Myzus persicae) are sprayed with an active ingredient formulation of the desired concentration. After the desired period of time, the efficacy in % is determined. 100% means that all the aphids have been killed; 0% means that no aphids have been killed.

In assay [3] the test system is Spodoptera frugiperda. The experiment in a line: Spodoptera frugiperda spray test, maize leaf discs. The settings on record: for Emax at 100 g/ha: Spodoptera frugiperda, foliar, 168 h, SPODFR, 100 g of ai/ha, 7 dat, read-out: % efficacy; for efficacy: application rate 100 g/ha, after 7 days, caterpillars. The method, then: Spodoptera frugiperda—Spray Test [table] To produce a suitable active ingredient formulation, 1 part by weight of active ingredient is dissolved with the specified parts by weight of solvent and made up to the desired concentration with water containing an emulsifier concentration of 1000 ppm. To produce further test concentrations, the formulation is diluted with emulsifier-containing water. Leaf discs of maize (Zea mays) are sprayed with an active ingredient formulation of the desired concentration and, after drying, populated with caterpillars of the armyworm (Spodoptera frugiperda). After 7 days, the efficacy in % is determined. 100% means that all the caterpillars have been killed; 0% means that no caterpillar has been killed.

The next assay has as its system Phaedon cochleariae. The experiment in a line: Phaedon cochleariae spray test, Chinese cabbage leaf discs. The settings on record: foliar, 168 h, application rate 100 g/ha, after 7 days, larvae, read-out: efficacy. How it is done:
Phaedon cochleariae—Spray Test
To produce a suitable active ingredient formulation, 1 part by weight of active ingredient is dissolved with the specified parts by weight of solvent and made up to the desired concentration with water containing an emulsifier concentration of 1000 ppm. To produce further test concentrations, the formulation is diluted with emulsifier-containing water.
After 7 days, the efficacy in % is determined. 100% means that all the beetle larvae have been killed; 0% means that no beetle larvae have been killed.

Assay [4] deals with Spodoptera frugiperda. The assay is described as follows: Spodoptera frugiperda spray test (SPODFR S), cotton leaves. The settings on record: 168 h, 7 dat, read-out: % efficacy. The method, then: Spodoptera frugiperda—Spray Test (SPODFR S) Solvent: 14 parts by weight of dimethylformamide Emulsifier: alkylaryl polyglycol ether To produce a suitable active ingredient formulation, 1 part by weight of active ingredient is dissolved with the specified parts by weight of solvent and made up to the desired concentration with water containing an emulsifier concentration of 1000 ppm. To produce further test concentrations, the formulation is diluted with emulsifier-containing water. If the addition of ammonium salts or/and penetrants is required, these are each added in a concentration of 1000 ppm to the formulation solution. Cotton leaves (Gossypium hirsutum) are sprayed with an active ingredient formulation of the desired concentration and populated with caterpillars of the armyworm (Spodoptera frugiperda). After the desired time, the kill in % is determined. 100% means that all caterpillars have been killed; 0% means that none of the caterpillars have been killed.

For a further assay, the system named is Nezara viridula. The experiment in a line: Nezara viridula spray test. To be noted: 96 h, NEZAVI, 500 g of ai/ha, 4 dat, read-out: % efficacy. The method, then:
Nezara viridula—Spray Test [table] To produce a suitable active ingredient formulation, 1 part by weight of active ingredient is dissolved with the specified parts by weight of solvent and made up to the desired concentration with water containing an emulsifier concentration of 1000 ppm. To produce further test concentrations, the formulation is diluted with emulsifier-containing water. If the addition of ammonium salts or/and penetrants is required, these are each added in a concentration of 1000 ppm to the formulation solution. Barley plants (Hordeum vulgare) infected with larvae of the Southern green shield bug (Nezara viridula) are sprayed with an active ingredient formulation of the desired concentration. After the desired period of time, the efficacy in % is determined. 100% means that all of the shield bugs have been killed; 0% means that none of the shield bugs have been killed.

For another assay, the system named is Ctenocephalides felis. The experiment in a line: Ctenocephalides felis oral test. The settings on record: application rate 100 ppm, after 2 days. The method, then: Ctenocephalides felis—Oral Test Solvent: dimethyl sulfoxide To produce a suitable active ingredient formulation, 10 mg of active ingredient are mixed with 0.5 ml of dimethyl sulfoxide. Dilution with citrated cattle blood gives the desired concentration. About 20 unfed adult cat fleas (Ctenocephalides felis) are placed into a chamber which is closed at the top and bottom with gauze. A metal cylinder whose bottom end is closed with parafilm is placed onto the chamber. The cylinder contains the blood/active ingredient formulation, which can be imbibed by the fleas through the parafilm membrane. After 2 days, the kill in % is determined. 100% means that all of the fleas have been killed; 0% means that none of the fleas have been killed.

Assay [5] relates to Myzus persicae. The assay is described as follows: Myzus persicae spray test, bell pepper plants. To be noted: application rate 20 ppm, after 6 days. The method, then: Myzus persicae—Spray Test Solvent: 14 parts by weight of dimethylformamide Emulsifier: alkylaryl polyglycol ether To produce a suitable active ingredient formulation, 1 part by weight of active ingredient is dissolved with the specified parts by weight of solvent and made up to the desired concentration with water containing an emulsifier concentration of 1000 ppm. To produce further test concentrations, the formulation is diluted with emulsifier-containing water. If the addition of ammonium salts or/and penetrants is required, these are each added in a concentration of 1000 ppm to the formulation solution. Bell pepper plants (Capsicum annuum) severely infested with the green peach aphid (Myzus persicae) are treated by spraying with the active ingredient formulation in the desired concentration. After 6 days, the kill in % is determined. 100% means that all of the aphids have been killed; 0% means that none of the aphids have been killed.

The next assay has as its system Lucilia cuprina. The assay is described as follows: Lucilia cuprina test. To be noted: after 2 days, L1 larvae. How it is done:
Lucilia cuprina Test Solvent: dimethyl sulfoxide To produce a suitable active ingredient formulation, 10 mg of active ingredient are mixed with 0.5 ml of dimethyl sulfoxide, and the concentrate is diluted with water to the desired concentration. About 20 L1 larvae of the Australian sheep blowfly (Lucilia cuprina) are transferred into a test vessel containing minced horsemeat and the active ingredient formulation of the desired concentration. After 2 days, the kill in % is determined. 100% means that all the larvae have been killed; 0% means that no larvae have been killed.

In the case of `CCS(=O)(=O)c1ccc(C(=O)N(C)C)nc1-c1nc2cc(C(F)(F)F)nc(C)c2n1C` [Example I-015], the pest or weed control at 4 ppm in the assay on Myzus persicae [1] amounted to 100%. For the same compound, in the assay with Myzus persicae [2], the pest or weed control at 20 g/ha was 90% and the pest or weed control at 100 g/ha was determined as 90%.

Consider `CCS(=O)(=O)c1ccc(-n2cncn2)nc1-c1nc2cc(C(F)(F)F)nc(Cl)c2n1C` [Example I-005], for which the pest or weed control at 4 ppm in the assay on Myzus persicae [1] was 100%. In the assay with Myzus persicae [2], the pest or weed control at 20 g/ha came to 100% and the pest or weed control at 100 g/ha was 100%. In addition, in the assay on Spodoptera frugiperda [3], the Emax at 100 g/ha worked out at 100% and the efficacy was found to be 100%.

As for `CCc1nc(C(F)(F)F)cc2nc(-c3nc(-n4ncn(-c5ccc(Cl)cc5)c4=O)ccc3S(=O)(=O)CC)n(C)c12` [Example I-016], in the assay on Myzus persicae [1], the pest or weed control at 4 ppm amounted to 100%. Moreover, the pest or weed control at 100 g/ha in the assay on Phaedon cochleariae is 100%. Further, the efficacy with Spodoptera frugiperda [3] is 100%. The Emax at 4 ppm in the assay with Spodoptera frugiperda [4] turned out to be 100%. For the same compound, the Emax at 500 g/ha in the assay on Nezara viridula is 50%.

As to `CCS(=O)(=O)c1ccc(-n2cncn2)nc1-c1nc2cc(C(F)(F)F)ncc2n1C` [Prior art WO 2016/124563 (Ex. 32), reference compound], the Emax at 100 g/ha in the assay on Spodoptera frugiperda [3] was found to be 50%.

For `CCS(=O)(=O)c1ccc(-n2ccnn2)nc1-c1nc2cc(C(F)(F)F)ncc2n1C` [Prior art according to WO 2016/124563, reference compound], the Emax at 4 g/ha in the assay on Myzus persicae [2] (MYZUPE, 4 g of ai/ha, 5 dat, read-out: % efficacy) was determined as 0%.

Consider `CCS(=O)(=O)c1ccc(NC(=O)NC)nc1-c1nc2cc(C(F)(F)F)nc(C)c2n1C` [Example I-002], for which, in the assay with Myzus persicae [1], the pest or weed control at 4 ppm came out at 100%. For the same compound, the pest or weed control at 20 g/ha in the assay with Myzus persicae [2] was 90%.

For the compound `CCS(=O)(=O)c1ccc(N)nc1-c1nc2cc(C(F)(F)F)nc(C#N)c2n1C` [Example I-007], the pest or weed control at 4 ppm with Myzus persicae [1] was found to be 100%. For the same compound, the pest or weed control at 20 g/ha in the assay on Myzus persicae [2] was 90%. In addition, the pest or weed control at 100 g/ha in the assay on Phaedon cochleariae was 100%.

Take `C=Cc1nc(C(F)(F)F)cc2nc(-c3nc(-n4ncn(-c5ccc(Cl)cc5)c4=O)ccc3S(=O)(=O)CC)n(C)c12` [Example I-017]: the pest or weed control at 4 ppm with Myzus persicae [1] turned out to be 100%. For the same compound, the pest or weed control at 20 g/ha with Myzus persicae [2] is 90%. The compound also displayed an efficacy in the assay on Spodoptera frugiperda [3] of 100%.

Consider `CCS(=O)(=O)c1ccc(C(=O)NC)nc1-c1nc2cc(C(F)(F)F)nc(C)c2n1C` [Example I-014], for which the pest or weed control at 4 ppm with Myzus persicae [1] is 100%. In addition, in the assay on Myzus persicae [2], the pest or weed control at 20 g/ha was 90%.

Take `CCS(=O)(=O)c1ccc(NC(=O)NC)nc1-c1nc2cc(C(F)(F)F)nc(C#N)c2n1C` [Example I-010]: the “efficacy (kill)” value amounted to 100% in the assay on Ctenocephalides felis and 99% in the assay on Myzus persicae [5]. Moreover, the pest or weed control at 4 ppm with Myzus persicae [1] came to 100%.

`CCS(=O)(=O)c1ccc(-n2cc(Cl)cn2)nc1-c1nc2cc(C(F)(F)F)nc(C#N)c2n1C` [Example I-009, 2-[6-(4-chloro-1H-pyrazol-1-yl)-3-(ethylsulfonyl)pyridin-2-yl]-3-methyl-6-(trifluoromethyl)-3H-imidazo[4,5-c]pyridine-4-carbonitrile]: the “efficacy (kill)” value in the assay with Lucilia cuprina (application rate 20 ppm) and in the assay on Lucilia cuprina (application rate 100 ppm) was 100% in each case. Moreover, the pest or weed control at 4 ppm in the assay with Myzus persicae [1] turned out to be 90%.

Take `CCS(=O)(=O)c1ccc(-n2cncn2)nc1-c1nc2cc(C(F)(F)F)nc(C#N)c2n1C` [Example I-012]: the pest or weed control at 4 ppm in the assay with Myzus persicae [1] is 100%. Also, in the assay on Phaedon cochleariae, the pest or weed control at 100 g/ha is 83%. Also, in the assay on Myzus persicae [5], the “efficacy (kill)” value is 100%.

In the case of `CCS(=O)(=O)c1ccc(NC(=O)NC)nc1-c1nc2cc(C(F)(F)F)nc(Cl)c2n1C` [Example I-006], the pest or weed control at 4 ppm in the assay with Myzus persicae [1] was 100%. In addition, in the assay on Myzus persicae [2], the pest or weed control at 20 g/ha came to 90% and the pest or weed control at 100 g/ha stood at 90%.

On to `CCS(=O)(=O)c1ccc(-n2cc(C#N)cn2)nc1-c1nc2cc(C(F)(F)F)nc(C)c2n1C` [Example I-008], for which the “efficacy (kill)” value with Ctenocephalides felis and in the assay with Lucilia cuprina (application rate 100 ppm) was 100% each time. The pest or weed control at 4 ppm in the assay on Myzus persicae [1] was 100%. In the assay on Phaedon cochleariae, the pest or weed control at 100 g/ha came out at 100%.

In the case of `CCS(=O)(=O)c1ccc(-n2ncn(-c3ccc(Cl)cc3)c2=O)nc1-c1nc2cc(C(F)(F)F)nc(C#N)c2n1C` [Example I-011, 2-{6-[4-(4-chlorophenyl)-5-oxo-4,5-dihydro-1H-1,2,4-triazol-1-yl]-3-(ethylsulfonyl)pyridin-2-yl}-3-methyl-6-(trifluoromethyl)-3H-imidazo[4,5-c]pyridine-4-carbonitrile], the “efficacy (kill)” value in the assay with Ctenocephalides felis, in the assay on Lucilia cuprina (application rate 20 ppm) and in the assay on Lucilia cuprina (application rate 100 ppm) was 100% throughout. Besides, in the assay on Myzus persicae [1], the pest or weed control at 4 ppm stood at 100%. In addition, the pest or weed control at 100 g/ha in the assay on Phaedon cochleariae was 100%. The Emax at 500 g/ha with Nezara viridula is 90%.

On to `CCS(=O)(=O)c1ccc(-n2cc(Cl)cn2)nc1-c1nc2cc(C(F)(F)F)nc(C)c2n1C` [Example I-004], for which the pest or weed control at 4 ppm with Myzus persicae [1] was 100%. Besides, the pest or weed control at 100 g/ha in the assay with Phaedon cochleariae stood at 100%.
